Measured values as given in ChEMBL document CHEMBL1201862, “PubChem BioAssay data set” (2004).
The source made the active and inactive calls.

Assays:
[1] = OVCAR-3 cell viability loss – plate reader, dry powder samples, PAX8 inhibitor project, dose response (AID 743044); format: functional, cell-based
[2] = OVCAR8 cell viability loss – plate reader, dry powder samples, PAX8 project, dose response (AID 743197); format: functional, cell-based; settings: OVCAR-8
[3] = IGROV1 cell killing – plate reader, dry powder samples, PAX8 inhibitor project, dose response (AID 743043); format: functional, cell-based; settings: IGROV-1
Paired box protein Pax-8 = Paired box protein Pax-8 (Homo sapiens, UniProt Q06710); assay: PAX8 transcriptional activity inhibition in RMG-I – RMG-I cells, luciferase, cherry-pick, dose response (AID 687027); format: functional, cell-based;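 further: luciferase reporter driven by Pax8 target thyroperoxidase promoter measured by SteadyGlo luminescence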
Sequence of Paired box protein Pax-8 (Q06710 whole entry): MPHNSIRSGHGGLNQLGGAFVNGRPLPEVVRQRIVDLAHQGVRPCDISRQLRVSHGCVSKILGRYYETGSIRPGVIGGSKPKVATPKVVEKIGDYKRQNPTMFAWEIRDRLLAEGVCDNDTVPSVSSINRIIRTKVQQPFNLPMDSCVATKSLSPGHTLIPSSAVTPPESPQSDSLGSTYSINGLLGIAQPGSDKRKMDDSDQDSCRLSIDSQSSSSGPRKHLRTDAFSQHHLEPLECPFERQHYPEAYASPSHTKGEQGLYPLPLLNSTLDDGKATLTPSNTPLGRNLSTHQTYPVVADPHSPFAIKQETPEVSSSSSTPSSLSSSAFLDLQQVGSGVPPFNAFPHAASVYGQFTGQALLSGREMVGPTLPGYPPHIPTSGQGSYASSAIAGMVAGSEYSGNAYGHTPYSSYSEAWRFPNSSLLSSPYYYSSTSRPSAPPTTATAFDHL

[4] = target: Mitogen-activated protein kinase 10 (Homo sapiens, UniProt P53779); assay: Dose response biochemical screening assay for inhibitors of c-Jun N-Terminal Kinase 3 (JNK3). [Related pubchem assays: 746 ]
Sequence of Mitogen-activated protein kinase 10 (P53779 whole entry): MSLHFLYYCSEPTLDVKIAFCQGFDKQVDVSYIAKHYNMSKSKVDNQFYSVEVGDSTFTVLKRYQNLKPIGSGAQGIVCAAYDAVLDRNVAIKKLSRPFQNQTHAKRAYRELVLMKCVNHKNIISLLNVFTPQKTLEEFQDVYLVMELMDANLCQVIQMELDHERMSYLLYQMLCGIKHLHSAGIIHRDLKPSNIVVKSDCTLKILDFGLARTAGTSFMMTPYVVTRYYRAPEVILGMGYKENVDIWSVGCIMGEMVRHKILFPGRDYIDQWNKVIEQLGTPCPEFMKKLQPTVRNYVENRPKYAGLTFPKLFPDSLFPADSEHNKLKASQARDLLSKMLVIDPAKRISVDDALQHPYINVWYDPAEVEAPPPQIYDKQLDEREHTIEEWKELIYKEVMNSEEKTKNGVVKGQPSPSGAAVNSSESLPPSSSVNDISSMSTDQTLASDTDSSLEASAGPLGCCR

[5] = viability loss in THP-1 monocytes – THP-1 cells, cytotoxicity control for Vif-APOBEC3G degradation inhibitor project, dose response (AID 1117359); format: functional; settings: THP-1
Protein RecA = target: T1, Protein RecA (Mycobacterium tuberculosis, UniProt P9WHJ3); assay: Fluorescence Cell-Free Homogeneous Dose Retest to Identify Inhibitors of RecA-Intein Splicing Activity. [Related pubchem assays (depositor defined):AID2097, AID2223, AID489010, AID492950]; format: functional
T1 sequence (P9WHJ3 whole entry): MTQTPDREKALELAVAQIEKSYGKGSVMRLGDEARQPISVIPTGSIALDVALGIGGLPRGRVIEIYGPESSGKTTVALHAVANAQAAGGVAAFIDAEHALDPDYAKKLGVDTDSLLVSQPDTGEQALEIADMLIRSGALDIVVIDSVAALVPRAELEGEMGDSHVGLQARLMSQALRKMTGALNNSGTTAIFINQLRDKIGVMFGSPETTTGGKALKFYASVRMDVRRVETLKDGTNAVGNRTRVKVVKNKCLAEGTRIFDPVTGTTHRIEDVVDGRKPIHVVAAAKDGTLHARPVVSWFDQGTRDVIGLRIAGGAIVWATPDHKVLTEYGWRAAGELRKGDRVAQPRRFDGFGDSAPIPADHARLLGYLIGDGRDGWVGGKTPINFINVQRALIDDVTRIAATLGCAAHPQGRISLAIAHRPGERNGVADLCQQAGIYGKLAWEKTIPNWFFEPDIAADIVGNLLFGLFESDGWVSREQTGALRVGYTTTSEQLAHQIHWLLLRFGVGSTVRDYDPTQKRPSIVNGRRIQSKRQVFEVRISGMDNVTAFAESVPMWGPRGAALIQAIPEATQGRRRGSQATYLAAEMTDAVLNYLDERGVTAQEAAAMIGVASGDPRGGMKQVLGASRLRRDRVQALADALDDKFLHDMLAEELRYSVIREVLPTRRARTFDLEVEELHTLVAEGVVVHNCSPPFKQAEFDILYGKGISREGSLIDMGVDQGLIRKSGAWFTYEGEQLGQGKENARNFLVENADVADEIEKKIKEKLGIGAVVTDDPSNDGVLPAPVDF

[6] = target: T2, Glutathione-S-transferase (Schistosoma japonicum, UniProt Q26513); assay: GST-antibody interaction or FRET quenching – biochemical, TR-FRET, artefact control for Vif-APOBEC3G degradation inhibitor project, dose response (AID 1117362); format: functional
T2 sequence (Q26513 whole entry): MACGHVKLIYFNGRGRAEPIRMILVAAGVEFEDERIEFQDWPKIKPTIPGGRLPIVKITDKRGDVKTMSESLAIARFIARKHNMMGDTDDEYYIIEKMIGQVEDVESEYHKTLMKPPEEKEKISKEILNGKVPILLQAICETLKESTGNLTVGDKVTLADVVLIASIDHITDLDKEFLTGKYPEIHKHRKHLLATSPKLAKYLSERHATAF

[7] = viability of PTEN-deleted HCT116 cells – cell-based, HCT116 PTEN knockout, dose response (AID 1047); format: functional;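 further: HCT116 colon tumor cells with PTEN knocked out; cells exposed to compound for 60 hours before readout; potency for loss of cell viability measured by luminescence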
[8] = viability of HCT116 lacking mutant beta-catenin – cell-based, human colon tumor, dose response (AID 1045); format: functional;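 further: HCT116 colon tumor cells with beta catenin knocked out; cells exposed to compound for 60 hours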
[9] = target: T3, Replicative DNA helicase DnaB (Mycobacterium tuberculosis, UniProt P9WMR3); assay: DnaB intein splicing inhibitors, dose response, biochemical, cell-free fluorescence (AID 449749); format: functional
T3 sequence (P9WMR3 whole entry): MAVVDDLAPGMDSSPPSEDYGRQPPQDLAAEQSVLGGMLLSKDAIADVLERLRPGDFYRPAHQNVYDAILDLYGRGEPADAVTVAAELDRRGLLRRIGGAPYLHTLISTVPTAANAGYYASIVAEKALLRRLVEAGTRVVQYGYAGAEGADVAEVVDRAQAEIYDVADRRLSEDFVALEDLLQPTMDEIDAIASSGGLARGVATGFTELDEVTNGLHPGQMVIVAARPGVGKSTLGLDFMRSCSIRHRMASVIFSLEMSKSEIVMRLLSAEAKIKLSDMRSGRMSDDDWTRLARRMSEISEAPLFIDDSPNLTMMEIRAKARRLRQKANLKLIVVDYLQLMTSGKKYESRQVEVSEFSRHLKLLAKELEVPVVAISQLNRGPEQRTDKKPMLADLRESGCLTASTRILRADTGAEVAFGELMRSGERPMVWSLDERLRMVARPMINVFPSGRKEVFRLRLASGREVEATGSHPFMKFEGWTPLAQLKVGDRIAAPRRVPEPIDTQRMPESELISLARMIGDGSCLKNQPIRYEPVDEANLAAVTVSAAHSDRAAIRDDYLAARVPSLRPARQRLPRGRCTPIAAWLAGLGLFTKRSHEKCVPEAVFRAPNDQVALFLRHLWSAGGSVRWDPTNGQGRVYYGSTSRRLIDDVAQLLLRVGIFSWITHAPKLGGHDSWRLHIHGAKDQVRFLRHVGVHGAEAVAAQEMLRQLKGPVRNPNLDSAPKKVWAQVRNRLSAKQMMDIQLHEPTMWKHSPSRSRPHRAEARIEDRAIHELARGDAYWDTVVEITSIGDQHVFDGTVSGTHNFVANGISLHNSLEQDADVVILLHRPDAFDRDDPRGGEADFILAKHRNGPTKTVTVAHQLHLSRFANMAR

[10] = toxicity to human hepatoma HepG2 cells – cell-based, cherry-picked samples, cytotoxicity control, dose response (AID 1159577); format: functional
[11] = P. falciparum Dd2 growth inhibitors, dose response, SYBR Green, cherry-picked samples (AID 1159567); format: functional, cell-based
[12] = Dd2 malaria parasite growth inhibition potency – SYBR Green, dry powder samples, dose response (AID 1159566); format: functional, cell-based;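 further: potency for growth inhibition with lower SYBR green DNA signal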
[13] = growth inhibition of PfATP4-mutant resistant parasites – NITD609-resistant line, SYBR Green, dry powder, dose response (AID 1159571); format: functional, cell-based;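 further: parasites synchronized at ring stage by sorbitol before testing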
[14] = growth inhibition of yeast DHODH-expressing 3D7 parasites – SYBR Green, dry powder samples, dose response (AID 1159570); format: functional, cell-based;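 further: parasite growth measured after 72 hours of compound exposure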
[15] = target: T4, Histone-lysine N-methyltransferase NSD2 (Homo sapiens, UniProt O96028); format: biochemical
T4 sequence (O96028 whole entry): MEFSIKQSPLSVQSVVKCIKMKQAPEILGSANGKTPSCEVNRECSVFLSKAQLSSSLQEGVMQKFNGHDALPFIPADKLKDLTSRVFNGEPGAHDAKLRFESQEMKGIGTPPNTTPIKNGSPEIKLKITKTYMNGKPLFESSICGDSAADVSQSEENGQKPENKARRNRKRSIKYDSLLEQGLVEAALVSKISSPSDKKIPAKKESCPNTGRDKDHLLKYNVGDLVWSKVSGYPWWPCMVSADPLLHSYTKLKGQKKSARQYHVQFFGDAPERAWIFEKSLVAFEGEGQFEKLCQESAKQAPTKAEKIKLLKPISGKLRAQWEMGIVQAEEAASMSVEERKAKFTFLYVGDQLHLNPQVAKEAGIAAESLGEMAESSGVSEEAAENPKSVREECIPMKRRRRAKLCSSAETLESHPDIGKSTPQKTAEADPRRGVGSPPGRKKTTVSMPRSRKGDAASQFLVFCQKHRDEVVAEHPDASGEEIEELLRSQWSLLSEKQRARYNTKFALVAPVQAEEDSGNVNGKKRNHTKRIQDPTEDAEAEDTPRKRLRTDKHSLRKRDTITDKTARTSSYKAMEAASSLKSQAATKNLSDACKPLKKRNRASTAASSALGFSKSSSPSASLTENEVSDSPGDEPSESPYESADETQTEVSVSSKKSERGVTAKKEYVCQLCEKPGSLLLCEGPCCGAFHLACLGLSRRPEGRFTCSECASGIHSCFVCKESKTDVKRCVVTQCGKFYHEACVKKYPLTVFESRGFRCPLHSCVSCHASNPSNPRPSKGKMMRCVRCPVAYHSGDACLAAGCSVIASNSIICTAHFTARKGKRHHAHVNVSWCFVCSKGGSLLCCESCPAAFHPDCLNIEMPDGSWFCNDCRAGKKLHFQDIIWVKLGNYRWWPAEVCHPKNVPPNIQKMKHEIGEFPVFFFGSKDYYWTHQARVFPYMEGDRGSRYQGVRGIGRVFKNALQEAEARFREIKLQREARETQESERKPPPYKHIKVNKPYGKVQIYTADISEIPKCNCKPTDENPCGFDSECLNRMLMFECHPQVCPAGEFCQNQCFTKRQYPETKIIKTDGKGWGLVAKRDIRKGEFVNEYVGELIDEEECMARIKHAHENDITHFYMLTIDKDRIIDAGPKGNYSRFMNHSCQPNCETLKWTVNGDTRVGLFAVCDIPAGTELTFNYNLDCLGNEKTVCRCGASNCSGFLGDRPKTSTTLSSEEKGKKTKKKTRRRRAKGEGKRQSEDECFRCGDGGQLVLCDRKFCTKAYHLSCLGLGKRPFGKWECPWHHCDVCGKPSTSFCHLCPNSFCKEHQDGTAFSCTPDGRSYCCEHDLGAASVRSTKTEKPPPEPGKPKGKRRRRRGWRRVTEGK

Nonstructural protein 1 = Nonstructural protein 1 (Influenza A virus, UniProt Q194T2); format: functional, Influenza A virus (A/California/07/2009(H1N1))
Sequence of Nonstructural protein 1 (Q194T2 whole entry): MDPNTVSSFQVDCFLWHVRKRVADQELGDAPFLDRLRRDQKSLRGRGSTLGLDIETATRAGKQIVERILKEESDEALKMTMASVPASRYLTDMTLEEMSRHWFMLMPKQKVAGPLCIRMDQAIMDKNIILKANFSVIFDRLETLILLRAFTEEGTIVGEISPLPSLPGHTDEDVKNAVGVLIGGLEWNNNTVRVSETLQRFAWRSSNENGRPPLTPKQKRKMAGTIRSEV

Ion channel NompC = Ion channel NompC (Danio rerio, UniProt Q7T1G6); assay: Fluorescence counterscreen assay for TRPML3 agonists: dose response cell-based high-throughput screening assay to identify agonists of the transient receptor potential channel N1 (TRPN1). [Related pubchem assays: 1526, 1424, 1448 ]; format: functional
Sequence of Ion channel NompC (Q7T1G6 whole entry): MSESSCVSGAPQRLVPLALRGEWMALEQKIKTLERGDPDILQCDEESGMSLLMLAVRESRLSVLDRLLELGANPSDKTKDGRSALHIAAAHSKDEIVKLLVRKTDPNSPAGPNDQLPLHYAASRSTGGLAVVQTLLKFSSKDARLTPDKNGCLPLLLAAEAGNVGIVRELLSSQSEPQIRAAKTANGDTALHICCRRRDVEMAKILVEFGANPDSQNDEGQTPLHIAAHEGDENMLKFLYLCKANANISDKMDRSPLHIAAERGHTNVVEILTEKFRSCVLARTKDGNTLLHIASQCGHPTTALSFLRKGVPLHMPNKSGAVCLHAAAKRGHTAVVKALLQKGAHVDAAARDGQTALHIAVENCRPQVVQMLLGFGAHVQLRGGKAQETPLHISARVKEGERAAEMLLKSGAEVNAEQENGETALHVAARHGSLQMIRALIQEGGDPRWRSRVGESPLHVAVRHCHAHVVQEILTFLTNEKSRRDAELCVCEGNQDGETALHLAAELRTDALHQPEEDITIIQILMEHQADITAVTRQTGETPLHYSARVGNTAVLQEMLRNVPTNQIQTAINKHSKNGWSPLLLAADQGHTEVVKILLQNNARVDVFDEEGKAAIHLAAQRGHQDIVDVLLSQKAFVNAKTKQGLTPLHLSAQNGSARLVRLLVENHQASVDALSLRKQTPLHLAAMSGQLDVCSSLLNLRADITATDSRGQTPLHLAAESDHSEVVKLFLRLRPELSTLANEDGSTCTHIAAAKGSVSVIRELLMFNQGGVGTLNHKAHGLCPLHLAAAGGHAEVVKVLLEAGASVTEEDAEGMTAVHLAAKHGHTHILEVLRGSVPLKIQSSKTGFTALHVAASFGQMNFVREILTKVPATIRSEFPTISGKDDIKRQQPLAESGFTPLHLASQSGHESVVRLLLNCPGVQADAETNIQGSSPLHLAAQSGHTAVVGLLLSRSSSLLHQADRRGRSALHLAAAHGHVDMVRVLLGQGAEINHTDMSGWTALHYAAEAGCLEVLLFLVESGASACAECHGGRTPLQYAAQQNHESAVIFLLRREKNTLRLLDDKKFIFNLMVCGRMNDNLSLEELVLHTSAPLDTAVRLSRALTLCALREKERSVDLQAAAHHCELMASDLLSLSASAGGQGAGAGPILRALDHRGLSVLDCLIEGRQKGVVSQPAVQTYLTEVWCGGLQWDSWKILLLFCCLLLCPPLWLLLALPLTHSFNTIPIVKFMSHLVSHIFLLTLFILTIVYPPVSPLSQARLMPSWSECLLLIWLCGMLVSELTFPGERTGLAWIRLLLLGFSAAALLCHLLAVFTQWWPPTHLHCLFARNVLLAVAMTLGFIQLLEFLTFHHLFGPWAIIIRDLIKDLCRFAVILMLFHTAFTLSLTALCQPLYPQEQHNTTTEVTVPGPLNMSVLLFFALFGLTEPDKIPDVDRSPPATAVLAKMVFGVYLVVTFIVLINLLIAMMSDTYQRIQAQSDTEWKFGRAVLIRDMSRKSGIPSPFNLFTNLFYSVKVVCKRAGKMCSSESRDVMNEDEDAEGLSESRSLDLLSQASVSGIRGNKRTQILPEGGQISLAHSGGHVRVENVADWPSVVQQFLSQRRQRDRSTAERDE

Mucolipin-3 = target: T5, Mucolipin-3 (Homo sapiens, UniProt Q8TDD5); assay: Dose response cell-based high-throughput screening assay for agonists of the transient receptor potential channel ML3 (TRPML3). [Related pubchem assays: 1526, 1424, 1448 ]; format: functional
T5 sequence (Q8TDD5 whole entry): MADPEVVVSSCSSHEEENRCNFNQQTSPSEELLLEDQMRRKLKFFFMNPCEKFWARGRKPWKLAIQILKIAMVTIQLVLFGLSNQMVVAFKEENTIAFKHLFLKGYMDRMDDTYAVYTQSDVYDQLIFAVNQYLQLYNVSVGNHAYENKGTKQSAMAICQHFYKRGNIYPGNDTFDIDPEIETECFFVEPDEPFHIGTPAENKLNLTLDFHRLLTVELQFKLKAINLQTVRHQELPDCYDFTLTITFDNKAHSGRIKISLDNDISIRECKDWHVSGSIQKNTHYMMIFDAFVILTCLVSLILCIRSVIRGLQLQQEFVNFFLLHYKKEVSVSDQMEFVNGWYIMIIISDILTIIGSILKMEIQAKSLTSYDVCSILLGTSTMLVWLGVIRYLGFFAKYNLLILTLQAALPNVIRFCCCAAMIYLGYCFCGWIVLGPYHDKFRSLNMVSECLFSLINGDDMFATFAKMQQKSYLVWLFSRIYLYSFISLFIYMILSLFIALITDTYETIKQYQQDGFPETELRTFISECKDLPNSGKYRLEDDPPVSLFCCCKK

Compound: C[C@H]1CCCCO[C@@H](CN(C)Cc2ccc(C(F)(F)F)cc2)[C@@H](C)CN([C@@H](C)CO)C(=O)c2cc(NC(=O)Nc3ccc4c(c3)OCO4)ccc2O1
- AC50 [1]: 21.1 µM (active)
- AC50 [2]: 51.5 µM (active)
- AC50 [3]: 49.6 µM (active)
- AC50 (Paired box protein Pax-8): 7.11 µM (active)

Compound: CC1CCc2nc(N)c(C#N)c(-c3ccncc3)c2C1 (stereo unspecified)
- IC50 [4]: > 93.1 µM (not active)

Compound: CN(C)N1C(N)=C(C#N)C(c2cccnc2)C2=C1CCCC2=O (stereo unspecified)
- CC50 [5]: > 40 µM (active)

Compound: CC[n+]1c(/C=C2\C=C(C)CC(C)(C)C2)sc2ccccc21
- CC50 [5]: 4.22 µM (active)
- EC50 (Protein RecA): 27.3 µM (active)
- IC50 [6]: > 100 µM (active)
- EC50 [7]: 11.7 µM (active)
- EC50 [8]: 9.81 µM (active)
- AC50 [9]: > 380 µM (inactive)

Compound: C[C@@H]1CN([C@H](C)CO)C(=O)c2cc(C#CCc3ccccc3)cnc2O[C@H]1CN(C)CC1CCCC1
- AC50 [10]: 13.5 µM (active)
- AC50 [11]: 1.91 µM (active)

Compound: CN(C)C(=O)c1cccc(-c2cccc(-c3nc(C(=O)NC4CCCCC4)cc4c3[C@H](CCO)N([S@@+]([O-])C(C)(C)C)C4)c2)c1
- AC50 [12]: 0.736 µM (active)
- AC50 [11]: 2.05 µM (active)
- AC50 [13]: 0.933 µM (active)
- AC50 [14]: 1.32 µM (active)

Compound: Cc1[nH]c(=O)[nH]c1C(=O)CCCCC(=O)OCC(=O)Nc1ccccn1
- AC50 [15]: 1.26 µM (active)
- IC50 [4]: > 93.1 µM (not active)
- IC50 (Nonstructural protein 1): 1.98 µM (active)

Compound: O=C(Nc1nc(-c2ccc3ccccc3c2)cs1)C1CCN(S(=O)(=O)c2cccs2)CC1
- EC50 (Ion channel NompC): > 29.9 µM (not active)
- EC50 (Mucolipin-3): 14.2 µM (not active)

Compound: COc1ccc(S(=O)(=O)NC2CCCC2)c(Cl)c1Cl
- EC50 (Ion channel NompC): > 29.9 µM (not active)
- EC50 (Mucolipin-3): 3.55 µM (active)

Compound: O=C(C1CC1)N1CC(=O)N2[C@H](CO)[C@H](c3ccc(C#CCc4ccccc4)cc3)[C@H]2C1
- AC50 [10]: > 39 µM (inactive)
- AC50 [11]: 9.66 µM (active)

Compound: COc1cccc(CN2C[C@@H]3N[C@H](C2)[C@@H]3c2ccc(-c3cccc(C#N)c3)cc2)c1
- AC50 [10]: 9.19 µM (active)
- AC50 [11]: 3.66 µM (active)

Compound: O=S(=O)(c1ccc(Cl)cc1Br)N1CCCCC1
- EC50 (Ion channel NompC): > 29.9 µM (not active)
- EC50 (Mucolipin-3): > 29.9 µM (not active)
